“Also recorded” adds a separate entry of the source. Each block holds one molecule with its values, some of them ahead of it.
Legend:
[1] = cited from earlier work
Shh signaling [2] = conditions: Nfia/b/x-deficient mice
Procedure: 10 μg/g Cyclopamine was injected from P8 to P16 on alternative days. 100 μg/g body weight BrdU was injected together from the 3rd injection for 5 consecutive days. Control mice were treated with the corresponding vehicle solution.
All cell counts were performed blindly and manually by five independent observers using Fiji/ImageJ software. […] Initially, cell numbers were normalized by the size (mm) of hypothalamic nuclei measured. […] All values are expressed as mean±S.E.M. Comparisons were analyzed by two-tailed Student's t-test using Microsoft Excel unless stated otherwise. A p-value of <0.05 was considered statistically significant.

Shh signaling [3] = assay: Activation of Shh signaling with SAG in juvenile control Rax-CreER;CAG-lsl-Sun1-GFP mice: tanycyte-derived neurogenesis; conditions: juvenile mice (P10-12), 10 mg/kg i.p.
Procedure: Vehicle controls were performed in parallel. To quantify levels of tanycyte proliferation and neurogenesis, 50 mg/kg 5-Ethynyl-2′-deoxyuridine (EdU) was delivered via three once-daily i.p. injections beginning on the first day of treatment. Four days after the final treatment at P16, immunohistochemistry was performed on 25 μm hypothalamic brain sections to quantify the levels of tanycyte proliferation and tanycyte-derived neurogenesis. The number of Edu+/GFP+/HuC/D+ tanycyte-derived neurons in the DMN, VMN, ArcN, and ME of the hypothalamus were then quantified.
• 1) Dissolved in 5 mg Sag with 1 ml of 1×PBS. • 2) Dilute stock to 1 ug/1 ul stock in 1×PBS that is 200 ul of 5 mg/ml stock into 800 ul of 1× PBS. • 3) if animal is 10 g then it will get 10 ug per gram so that is 100 ug/100 ul of 1 ug/1 ul stock.

leptin receptor Lepr = assay: Leptin injection: pStat3 induction in tanycyte-derived neurons of Nfia/b/x-deficient mice; assay type: in vivo; conditions: P90 fasted mice, 3 mg/kg i.p., 45 minutes
Procedure: At P45, 4.4% of tanycyte-derived neurons in the GABA_2 cluster expressed the leptin receptor Lepr (FIG. 5B), despite Lepr being essentially undetectable in tanycytes themselves, as previously reported (19). As a result, it was tested whether tanycyte-derived neurons were capable of responding to leptin signaling. P90 mice that had undergone an overnight fast were injected i.p. with 3 mg/kg leptin, and sacrificed after 45 minutes, providing sufficient time for leptin-responsive neurons throughout the hypothalamus to induce pStat3 immunoreactivity (35, 36). […] A total of 42.3 (2.5) % of parenchymal tanycyte-derived neurons in DMH and ArcN show pStat3 induction under these conditions, along with 22.3 (±3.9) % of tanycyte-derived neurons in the subventricular region (FIG. 5J), confirming that a subset of tanycyte-derived neurons are leptin-responsive.
After brief washing with 1×PBS to remove the antifreeze solution, sections were mounted on Superfrost Plus slides (Fisher Scientific) before starting the immunohistochemistry and dried at room temperature for 30 min. To ensure adequate fixation for nuclear staining, sections were immersed into the fixative solution for 10 min at this point. Antigen retrieval was performed by incubating the slides with the prewarmed sodium citrate buffer (10 mM sodium citrate, pH 6.0) in an 80° C. water bath for 30 min. […] After finishing the first round of immunostaining, the fluorescence signal was crosslinked by incubation in 2% PFA for 10 min, followed by either EdU staining using the Click-iT EdU detection kit conjugated with Alexa Fluor 647 (ThermoFisher #C10340) or BrdU antibody staining. […]
P45 male mice were exposed to ambient heat (38° C.) for 4 hours (67) by incubating in a prewarmed light-controlled cabinet in the rodent metabolism core facility at the Center for Metabolism and Obesity Research of the Johns Hopkins University School of Medicine. During the procedure, mice were provided ad libitum access to water and food and carefully monitored. […]

[4] = 10 μg/g i.p. every 2 days P8-P16, compared to vehicle controls

Molecule: O=C1C2CN(Cc3ccc(Cl)cc3)CCN2C(=O)N1OC(=O)N1CCOc2ccccc21 (stereo not drawn) [ABC99, 7-(4-Chlorobenzyl)-1,3-dioxohexahydroimidazo[1,5-a]pyrazin-2(3H)-yl 2,3-dihydro-4Hbenzo[b][1,4]oxazine-4-carboxylate]
blood-brain barrier permeability [1]: blood-brain barrier-permeable; also recorded: efficiently cross the blood-brain barrier

Molecule: CC1=C2C[C@H]3[C@@H](CC=C4C[C@@H](O)CC[C@@]43C)[C@@H]2CC[C@]12O[C@@H]1C[C@H](C)CN[C@H]1[C@H]2C [Cyclopamine]
numbers of GFP/NeuN double-positive neurons in VZ and HP (Shh signaling [2]; [4]): significant reduction | numbers of total GFP-positive cells in ventricular zone (VZ) and hypothalamic parenchyma (HP) (Shh signaling [2]; [4]): significant reduction | BrdU incorporation (Shh signaling [2]; BrdU daily P12-P16, compared to vehicle controls): only significantly different in parenchymal neurons | neurogenesis (FIG. 4C) (Shh signaling [2]; i.p.): inhibits neurogenesis | blood-brain barrier permeability [1]: blood-brain barrier-permeable

Molecule: CNC1CCC(N(Cc2cccc(-c3ccncc3)c2)C(=O)c2sc3ccccc3c2Cl)CC1 (stereo not drawn) [SAG]
blood-brain barrier permeability [1]: efficiently cross the blood-brain barrier | tanycyte proliferation as cause of the increase (Shh signaling [3]): does not appear to be due to stimulating tanycyte proliferation | number of tanycyte-derived neurons (Shh signaling [3]; 3 daily injections): increase, including significant increases

parenchymal tanycyte-derived neurons in DMH and ArcN showing pStat3 induction (leptin receptor Lepr): 42.3 (2.5) % | tanycyte-derived neurons in the subventricular region showing pStat3 induction (leptin receptor Lepr): 22.3 (±3.9) %
B1: leptin: Recombinant Murine Leptin (PeproTech #450-31) (protein, UniProt P41160 22-167, looked up)
Leptin: VPIQKVQDDTKTLIKTIVTRINDISHTQSVSAKQRVTGLDFIPGLHPILSLSKMDQTLAVYQQVLTSLPSQNVLQIANDLENLRDLLHLLAFSKSCSLPQTSGLQKPESLDGVLEASLYSTEVVALSRLQGSLQDILQQLDVSPEC
pStat3 immunoreactivity in GFP-positive tanycyte-derived neurons (leptin receptor Lepr): Robust induction

Reference: US20260284071A1, “CONTROLLING HOMEOSTATIC REGULATORY CIRCUITRY IN HYPOTHALAMUS” (The Johns Hopkins University, priority 2021, published 2026)
